Each structure is given as a SMILES string.

For one assay, the target named is T1, HDAC6 enzyme (Homo sapiens, UniProt Q9UBN7).
T1 construct: HDAC6 enzyme prepared by transducing full length HDAC6 gene into Sf-9 insect cells; GST; purchased SignalChem; host or cells: Sf-9 insect cells
T1 sequence (Q9UBN7 1-1215): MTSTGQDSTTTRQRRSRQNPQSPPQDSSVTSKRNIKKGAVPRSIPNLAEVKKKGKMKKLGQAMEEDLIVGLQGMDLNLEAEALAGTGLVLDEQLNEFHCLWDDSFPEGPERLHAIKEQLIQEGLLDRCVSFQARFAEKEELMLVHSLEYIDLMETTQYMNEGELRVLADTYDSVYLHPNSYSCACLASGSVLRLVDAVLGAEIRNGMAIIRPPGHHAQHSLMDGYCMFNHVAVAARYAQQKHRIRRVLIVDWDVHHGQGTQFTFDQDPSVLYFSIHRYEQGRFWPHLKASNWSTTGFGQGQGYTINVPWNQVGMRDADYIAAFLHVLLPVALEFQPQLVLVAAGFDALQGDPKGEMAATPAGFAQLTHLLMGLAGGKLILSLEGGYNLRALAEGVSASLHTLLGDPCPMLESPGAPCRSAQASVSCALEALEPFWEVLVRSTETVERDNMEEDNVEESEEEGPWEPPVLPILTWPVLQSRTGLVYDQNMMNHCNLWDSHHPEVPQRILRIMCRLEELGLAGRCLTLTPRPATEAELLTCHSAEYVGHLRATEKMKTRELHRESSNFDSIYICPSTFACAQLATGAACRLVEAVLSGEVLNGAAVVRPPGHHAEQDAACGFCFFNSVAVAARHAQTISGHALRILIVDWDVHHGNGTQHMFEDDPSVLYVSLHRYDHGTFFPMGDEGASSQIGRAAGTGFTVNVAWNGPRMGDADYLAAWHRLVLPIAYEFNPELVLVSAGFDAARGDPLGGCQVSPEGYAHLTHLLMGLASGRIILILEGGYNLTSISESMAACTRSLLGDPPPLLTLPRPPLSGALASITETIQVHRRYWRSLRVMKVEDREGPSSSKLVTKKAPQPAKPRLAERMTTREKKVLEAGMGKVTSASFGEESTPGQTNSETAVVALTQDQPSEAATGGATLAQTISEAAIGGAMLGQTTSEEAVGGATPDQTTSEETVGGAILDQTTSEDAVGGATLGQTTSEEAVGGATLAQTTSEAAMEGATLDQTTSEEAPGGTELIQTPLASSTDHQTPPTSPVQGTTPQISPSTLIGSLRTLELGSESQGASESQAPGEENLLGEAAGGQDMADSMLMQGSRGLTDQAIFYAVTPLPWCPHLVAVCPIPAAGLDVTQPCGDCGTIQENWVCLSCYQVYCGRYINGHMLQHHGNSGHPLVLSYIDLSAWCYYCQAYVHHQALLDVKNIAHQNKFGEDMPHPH
Description: HDAC6 enzyme inhibitory assay (HDAC-Glo I/II Assay kit). It counts as biochemical. As to conditions: wells without enzyme = 100% inhibition. How it is done: Experimental Example 1 HDAC6 Enzyme Inhibitory Assay
HDAC6 enzyme prepared by transducing full length HDAC6 gene into Sf-9 insect cells and purifying by GST affinity column were purchased from SignalChem. Using this enzyme, HDAC6 enzyme inhibitory activity of the compound of the present invention were evaluated. Enzymes were used after preserved at −70° C. HDAC6 enzyme inhibitory activity of the compound of the present invention was measured using HDAC-Glo™ I/II Assay kit (Promega) according to the following experimental method. The test compound diluted with assay buffer (24 mM Tris-HCl (pH 7.5), 1 mM MgCl2, 0.35 mM KCl, 135 mM NaCl, 0.6 mM Glutathione, 0.01% Tween-20) was added to a 384-well plate by each 2 μL. Then, HDAC6 enzyme solution diluted with assay buffer was added thereto by each 4 μL, and the plate was incubated at room temperature for 60 min. After incubated, HDAC substrate-Developer solution prepared according to Promega protocol attached to the assay kit was added to the 384-well plate by each 2 μL, and the enzyme reaction was started. After reacting at room temperature for 20 min, luminescence level was measured using plate reader Envision (PerkinElmer). The inhibitory activity of each compound of Example was calculated as a relative activity value when luminescence level in wells without enzyme is considered as 100% inhibition.
Regarding `O=C1c2cc(-c3nnc(C(F)F)o3)ccc2CN1[C@H](c1ccc(F)cc1)[C@@H](O)c1ccccc1` (single isomer, unassigned) [Example 46, 6-[5-(difluoromethyl)-1,3,4-oxadiazol-2-yl]-2-[(1R*,2S*)-1-(4-fluorophenyl)-2-hydroxy-2-phenylethyl]-2,3-dihydro-1H-isoindol-1-one], the “HDAC6 inhibitory rate (%) (10 μM)” value worked out at 100%.
On to `O=C1c2cc(-c3nnc(C(F)F)o3)ccc2CN1[C@H](c1ccc(F)nc1)[C@@H](O)c1ccc(F)cc1` (single isomer, unassigned) [Example 35, 6-[5-(difluoromethyl)-1,3,4-oxadiazol-2-yl]-2-[(1R*,2S*)-2-(4-fluorophenyl)-1-(6-fluoropyridin-3-yl)-2-hydroxyethyl]-2,3-dihydro-1H-isoindol-1-one], for which the “HDAC6 inhibitory rate (%) (10 μM)” value is recorded as 100%.

The same assay, now with this note: wells without enzyme = 100% inhibition, 10 µM.
With `O=C1c2cc(-c3nnc(C(F)F)o3)ccc2CN1[C@H](c1ccccc1)[C@@H](O)c1ccccn1` (single isomer, unassigned) [Example 48, 6-[5-(difluoromethyl)-1,3,4-oxadiazol-2-yl]-2-[(1R*,2R*)-2-hydroxy-1-phenyl-2-(pyridin-2-yl)ethyl]-2,3-dihydro-1H-isoindol-1-one], the “HDAC6 inhibitory rate (%) (10 μM)” value was found to be 100%.
As for `O=C1c2cc(-c3nnc(C(F)F)o3)ccc2CN1[C@H](c1ccccn1)[C@@H](O)c1ccc(F)cc1` (single isomer, unassigned) [Example 37, 6-[5-(difluoromethyl)-1,3,4-oxadiazol-2-yl]-2-[(1R*,2S*)-2-(4-fluorophenyl)-2-hydroxy-1-(pyridin-2-yl)ethyl]-2,3-dihydro-1H-isoindol-1-one], the “HDAC6 inhibitory rate (%) (10 μM)” value worked out at 100%.
Take `O=C1c2cc(-c3nnc(C(F)F)o3)ccc2CN1[C@H](C1CCOCC1)[C@@H](O)c1ccc(F)c(F)c1` (single isomer, unassigned) [Example 88, 6-[5-(difluoromethyl)-1,3,4-oxadiazol-2-yl]-2-[(1R*,2S*)-2-(3,4-difluorophenyl)-2-hydroxy-1-(oxan-4-yl)ethyl]-2,3-dihydro-1H-isoindol-1-one]: the “HDAC6 inhibitory rate (%) (10 μM)” value was 99%.
Turning to `O=C1c2cc(-c3nnc(C(F)F)o3)ccc2CN1[C@H](C1CC1)[C@@H](O)c1cccc(Cl)n1` (single isomer, unassigned) [Example 130, 2-[(1R*,2R*)-2-(6-chloropyridin-2-yl)-1-cyclopropyl-2-hydroxyethyl]-6-[5-(difluoromethyl)-1,3,4-oxadiazol-2-yl]-2,3-dihydro-1H-isoindol-1-one], the “HDAC6 inhibitory rate (%) (10 μM)” value turned out to be 98%.
Still for that read-out and setting: in the case of `O=C1c2cc(-c3nnc(C(F)F)o3)ccc2CN1[C@H](c1ccc(F)cc1F)[C@@H](O)c1ccc(F)cc1` (single isomer, unassigned) [Example 33, 6-[5-(difluoromethyl)-1,3,4-oxadiazol-2-yl]-2-[(1R*,2S*)-1-(2,4-difluorophenyl)-2-(4-fluorophenyl)-2-hydroxyethyl]-2,3-dihydro-1H-isoindol-1-one] it was 100%.

The same assay, now with this note: wells without enzyme = 100% inhibition, read-out: HDAC6 inhibitory rate (%) (10 μM).
Turning to `O=C1c2cc(-c3nnc(C(F)F)o3)ccc2CN1[C@H](c1ccc(F)cc1)[C@@H](O)c1cccnc1` (single isomer, unassigned) [Example 49, 6-[5-(difluoromethyl)-1,3,4-oxadiazol-2-yl]-2-[(1R*,2S*)-1-(4-fluorophenyl)-2-hydroxy-2-(pyridin-3-yl)ethyl]-2,3-dihydro-1H-isoindol-1-one], the inhibition at 10 µM was determined as 99%.
Regarding `CCOc1ccc([C@H](O)[C@@H](c2ccccc2)N2Cc3ccc(-c4nnc(C(F)F)o4)cc3C2=O)cn1` (racemic) [Example 44, 6-[5-(difluoromethyl)-1,3,4-oxadiazol-2-yl]-2-[(1RS,2SR)-2-(6-ethoxypyridin-3-yl)-2-hydroxy-1-phenylethyl]-2,3-dihydro-1H-isoindol-1-one], the inhibition at 10 µM was 100%.
As to `O=C1c2cc(-c3nnc(C(F)F)o3)ccc2CN1[C@H](c1cccc(F)c1)[C@@H](O)c1ccccc1` (racemic) [Example 20, 6-[5-(difluoromethyl)-1,3,4-oxadiazol-2-yl]-2-[(1RS,2SR)-1-(3-fluorophenyl)-2-hydroxy-2-phenylethyl]-2,3-dihydro-1H-isoindol-1-one], the inhibition at 10 µM was found to be 100%.
In the case of `O=C1c2cc(-c3nnc(C(F)F)o3)ccc2CN1[C@H](c1ccc(F)cc1)[C@@H](O)c1ccc(F)nc1` (single isomer, unassigned) [Example 131, 6-[5-(difluoromethyl)-1,3,4-oxadiazol-2-yl]-2-[(1R*,2S*)-1-(4-fluorophenyl)-2-(6-fluoropyridin-3-yl)-2-hydroxyethyl]-2,3-dihydro-1H-isoindol-1-one], the inhibition at 10 µM worked out at 99%.
With `O=C1c2cc(-c3nnc(C(F)F)o3)ccc2CN1[C@H](c1cccc(F)n1)[C@@H](O)c1cccc(F)n1` (single isomer, unassigned) [Example 117, 2-[(1R*,2R*)-1,2-bis(6-fluoropyridin-2-yl)-2-hydroxyethyl]-6-[5-(difluoromethyl)-1,3,4-oxadiazol-2-yl]-2,3-dihydro-1H-isoindol-1-one], the inhibition at 10 µM was found to be 101%.
Still for that read-out and setting: in the case of `O=C1c2cc(-c3nnc(C(F)F)o3)ccc2CN1[C@H](c1ccccn1)[C@@H](O)c1cccc(C(F)(F)F)n1` (single isomer, unassigned) [Example 119, 6-[5-(difluoromethyl)-1,3,4-oxadiazol-2-yl]-2-{(1R*,2R*)-2-hydroxy-1-(pyridin-2-yl)-2-[6-(trifluoromethyl)pyridin-2-yl]ethyl}-2,3-dihydro-1H-isoindol-1-one] it was 101%; in that of `O=C1c2cc(-c3nnc(C(F)F)o3)ccc2CN1[C@H](C1CC1)[C@H](O)c1ccc(F)cc1` [Example 137, 2-[(1R,2R)-1-cyclopropyl-2-(4-fluorophenyl)-2-hydroxyethyl]-6-[5-(difluoromethyl)-1,3,4-oxadiazol-2-yl]-2,3-dihydro-1H-isoindol-1-one], 100%; in that of `O=C1c2cc(-c3nnc(C(F)F)o3)ccc2CN1[C@H](c1ccccc1F)[C@@H](O)c1ccc(F)cc1` (racemic) [Example 28, 6-[5-(difluoromethyl)-1,3,4-oxadiazol-2-yl]-2-[(1RS,2SR)-1-(2-fluorophenyl)-2-(4-fluorophenyl)-2-hydroxyethyl]-2,3-dihydro-1H-isoindol-1-one], 99%.
The same measure, in the same setting: the result for `O=C1c2cc(-c3nnc(C(F)F)o3)ccc2CN1[C@H](c1ccccn1)[C@@H](O)c1ccc(C(F)(F)F)cn1` (single isomer, unassigned) [Example 104, 6-[5-(difluoromethyl)-1,3,4-oxadiazol-2-yl]-2-{(1R*,2R*)-2-hydroxy-1-(pyridin-2-yl)-2-[5-(trifluoromethyl)pyridin-2-yl]ethyl}-2,3-dihydro-1H-isoindol-1-one] reads 100%; that for `O=C1c2cc(-c3nnc(C(F)F)o3)ccc2CN1[C@@H](c1ccc(F)cn1)[C@H](O)c1ccc(F)cn1` (stereo in doubt) [Example 6, 2-[(1S,2S)-1,2-bis(5-fluoropyridin-2-yl)-2-hydroxyethyl]-6-[5-(difluoromethyl)-1,3,4-oxadiazol-2-yl]-2,3-dihydro-1H-isoindol-1-one], 100%.

Source of the values: patent US12384770B2, “Heterocyclic compound” (Takeda Pharmaceutical Company Limited, priority 2019, dated 2025).
